Values of other authors as cited in article PMC3473115 (Accounts of chemical research, 2012).
pIC50: −log10 of the molar value.

Test system: HIV-1 gp41
Settings: read-out: CCF IC50; cell-cell fusion assay

H2N-Trp-[Trp]-Leu-OH [compound 5]
pIC50: 5.30
